Read-outs that look alike come from different tables or passages of the source.
Legend:
COX-2 [1] = molecular target: T1, COX-2 (Homo sapiens, UniProt P35354); assay: cell-based; details: human whole blood, LPS-induced PGE2, 24 h
T1 sequence (P35354 18-604): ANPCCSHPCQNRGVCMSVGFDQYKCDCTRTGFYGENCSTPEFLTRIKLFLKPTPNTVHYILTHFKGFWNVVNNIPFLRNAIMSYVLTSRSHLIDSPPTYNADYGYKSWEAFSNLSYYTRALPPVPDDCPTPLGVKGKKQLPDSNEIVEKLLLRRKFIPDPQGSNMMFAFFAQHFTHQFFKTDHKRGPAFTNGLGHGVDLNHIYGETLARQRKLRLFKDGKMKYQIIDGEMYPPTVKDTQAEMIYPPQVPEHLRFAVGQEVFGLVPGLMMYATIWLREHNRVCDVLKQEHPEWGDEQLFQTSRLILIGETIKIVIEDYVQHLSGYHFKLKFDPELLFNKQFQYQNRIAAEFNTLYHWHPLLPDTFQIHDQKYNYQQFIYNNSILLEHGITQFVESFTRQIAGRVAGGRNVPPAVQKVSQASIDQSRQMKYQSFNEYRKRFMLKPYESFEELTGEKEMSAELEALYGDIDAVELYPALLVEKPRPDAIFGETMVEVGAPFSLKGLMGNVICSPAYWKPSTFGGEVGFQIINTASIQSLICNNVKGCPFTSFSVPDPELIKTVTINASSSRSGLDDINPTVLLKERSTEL
Source text: As well, platelets in whole blood contain a large amount of the COX-1 enzyme. Immediately following blood clotting, platelets are activated through a thrombin-mediated mechanism. This reaction results in the production of thromboxane B2 (TxB2) via activation of COX-1. Thus, the effect of test compounds on TxB2 levels following blood clotting can be examined and used as an index for COX-1 activity. Therefore, the degree of selectivity by the test compound can be determined by measuring the levels of PGE2 after LPS induction (COX-2) and TxB2 following blood clotting (COX-1) in the same assay.
Fresh blood is collected in heparinized tubes by venipuncture from both male and female volunteers. The subjects have no apparent inflammatory conditions and have not taken any NSAIDs for at least 7 days prior to blood collection. Plasma is immediately obtained from a 2mL blood aliquot to use as blank (basal levels of PGE2). The remaining blood is incubated with LPS (100 μg/ml final concentration, Sigma Chem, #L-2630 from E. coli; diluted in 0.1% BSA (Phosphate buffered saline) for 5 minutes at room temperature. Five hundred […] aliquots of blood are incubated with either 2 μL of vehicle (DMSO) or 2 μL of a test compound at final concentrations varying from 10 nM to 30 μM for 24 hours at 37° C. At the end of the incubation, the blood is centrifuged at 12,000×g for 5 minutes to obtain plasma. A 100 μL aliquot of plasma is mixed with 400 μL of methanol for protein precipitation. The supernatant is obtained and is assayed for PGE2 using a radioimmunoassay kit (Amersham, RPA#530) after conversion of PGE2 to its methyl oximate derivative according to the manufacturer's procedure. […]

COX-2 [2] = molecular target: T1, COX-2; assay: cell-based
Procedure: For cyclooxygenase assays, CHO[hCOX-1] cells from suspension cultures and CHO[hCOX-2] cells prepared by trypsinization of adherent cultures are harvested by centrifugation (300×g, 10 min) and washed once in HBSS containing 15 mM HEPES, pH 7.4, and resuspended in HBSS, 15 mM HEPES, pH 7.4, at a cell concentration of 1.5×10^6 cells/ml. Drugs to be tested are dissolved in DMSO to 66.7-fold the highest test drug concentration. […] Cells (0.3×10^6 cells in 200 μl) are preincubated with 3 μl of the test drug or DMSO vehicle for 15 min at 37° C. Working solutions of peroxide-free AA (5.5 μM and 110 μM AA for the CHO [hCOX-1] and CHO [COX-2] assays, respectively) are prepared by a 10-fold dilution of a concentrated AA solution in ethanol into HBSS containing 15 mM HEPES, pH 7.4. Cells are then challenged in the presence or absence of drug with the AA/HBSS solution to yield a final concentration of 0.5 μM AA in the CHO[hCOX-1] assay and a final concentration of 10 μM AA in the CHO[hCOX-2] assay. The reaction is terminated by the addition of 10 μl 1 N HCl followed by neutralization with 20 μl of 0.5 N NaOH. The samples are centrifuged at 300 ×g at 4° C. for 10 min, and an aliquot of the clarified supernatant is appropriately diluted for the determination of PGE2 levels using an enzyme-linked immunoassay for PGE2 (Correlate PGE2 enzyme immunoassay kit, Assay Designs, Inc.). Cyclooxygenase activity in the absence of test compounds is determined as the difference in PGE2 levels of cells challenged with arachidonic acid versus the PGE2 levels in cells mock-challenged with ethanol vehicle. Inhibition of PGE2 synthesis by test compounds is calculated as a percentage of the activity in the presence of drug versus the activity in the positive control samples.

COX-1 = COX-1 (Homo sapiens, UniProt P23219); assay: Assay of COX-1 activity from U937 cell microsomes (PGE2); assay type: biochemical; design: Assay of COX-1 Activity from U937 Cell Microsomes; endogenous in cells; host or cells: U937 cells, 100,000 x g microsomal pellet; details: U-937 cell microsomes, 15 min preincubation; read-out: COX-1 (IC50 mM) U-937
Procedure: U 937 cells are pelleted by centrifugation at 500×g for 5 min and washed once with phosphate-buffered saline and repelleted. Cells are resuspended in homogenization buffer consisting of 0.1 M Tris-HCl, pH 7.4, 10 mM EDTA, […] leupeptin, 2 μg/ml soybean trypsin inhibitor, 2 μg/ml aprotinin and 1 mM phenyl methyl sulfonyl fluoride. The cell suspension is sonicated 4 times for 10 sec and is centrifuged at 10,000×g for 10 min at 4° C. The supernatant is centrifuged at 100,000×g for 1 hr at 4° C. The 100,000×g microsomal pellet is resuspended in 0.1 M Tris-HCl, pH 7.4, 10 mM EDTA to approximately 7 mg protein/ml and stored at -80° C.
Microsomal preparations are thawed immediately prior to use, subjected to a brief sonication, and then diluted to a protein concentration of 125 μg/ml in 0.1 M Tris-HCl buffer, pH 7.4 containing 10 mM EDTA, 0.5 mM phenol, 1 mM reduced glutathione and 1 μM hematin. Assays are performed in duplicate in a final volume of 250 μl. Initially, 5 μl of DMSO vehicle or drug in DMSO are added to 20 μl of 0.1 M Tris-HCl buffer, pH 7.4 containing 10 mM EDTA in wells of a 96-deepwell polypropylene titre plate. 200 μl of the microsomal preparation are then added and pre-incubated for 15 min at room temperature before addition of 25 μl of […] arachidonic acid in […] Tris-HCl and 10 mM EDTA, pH 7.4. Samples are incubated for 40 min at room temperature and the reaction is stopped by the addition of 25 μl of 1 N HCl. Samples are neutralized with 25 μl of 1 N NaOH prior to quantitation of PGE2 content by radioimmunoassay (Dupont-NEN or Amersham assay kits). Cyclooxygenase activity is defined as the difference between PGE2 levels in samples incubated in the presence of arachidonic acid and ethanol vehicle.
In the assay, inhibition is determined by measuring the amount of prostaglandin E2 (PGE2) synthesized in the presence of arachidonic acid, cyclooxygenase-1 or cyclooxygenase-2 and a putative inhibitor.

[3] = CHO[hCOX-2] cells, 10 μM AA, 15 min preincubation, read-out: COX-2 (IC50 mM) CHO

Sequence of COX-1 (P23219 24-599): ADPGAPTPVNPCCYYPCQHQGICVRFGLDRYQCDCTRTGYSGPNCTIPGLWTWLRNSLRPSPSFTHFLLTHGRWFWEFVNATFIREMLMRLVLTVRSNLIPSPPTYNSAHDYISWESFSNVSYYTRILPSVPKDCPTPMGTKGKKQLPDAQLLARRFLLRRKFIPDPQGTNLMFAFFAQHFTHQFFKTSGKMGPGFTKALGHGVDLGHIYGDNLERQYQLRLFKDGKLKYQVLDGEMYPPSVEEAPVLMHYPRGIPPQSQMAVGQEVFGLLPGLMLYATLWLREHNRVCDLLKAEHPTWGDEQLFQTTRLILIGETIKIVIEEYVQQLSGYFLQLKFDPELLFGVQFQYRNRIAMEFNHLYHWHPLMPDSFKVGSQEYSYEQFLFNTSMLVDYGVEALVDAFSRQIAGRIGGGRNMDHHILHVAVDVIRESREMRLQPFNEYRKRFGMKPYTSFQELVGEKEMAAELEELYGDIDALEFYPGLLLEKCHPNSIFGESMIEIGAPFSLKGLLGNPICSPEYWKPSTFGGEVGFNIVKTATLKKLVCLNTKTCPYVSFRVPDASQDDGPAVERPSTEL

IC50 (COX-2 [1]; COX-2 (IC50 mM) HWB)	IC50 (COX-2 [2])	Structure (SMILES)	IC50 (COX-2 [1]; read-out: COX-2 (IC50 mM) HWB)	IC50 (COX-2 [2]; [3])	IC50 (COX-1)
–	–	CS(=O)(=O)c1ccc(-c2cc(C(F)(F)F)cnc2OCC2(O)CC2)cc1 [Example 11, 2-(1-Hydroxycyclopropyl)methoxy-3-(4-methylsulfonyl)phenyl-5-trifluoromethylpyridine]	0.0016 mM	0.09 µM	0.01 mM
–	–	CCC(O)(CC)CSc1ncc(C(F)(F)F)cc1-c1ccc(S(C)(=O)=O)cc1 [Example 47, 2-(2-Ethyl-2-hydroxy-1-thiobutyloxy)-3-(4-methylsulfonyl)phenyl-5-trifluoromethylpyridine]	0.0006 mM	0.02 µM	0.003 to 0.01 mM
–	–	CCC(O)(CC)COc1ncc(Cl)cc1-c1ccc(S(C)(=O)=O)cc1 [Example 9, 5-Chloro-2-(2-hydroxy-2-ethyl-1-butyloxy)-3-(4-methylsulfonyl)phenylpyridine]	0.0016 mM	0.07 µM	> 0.01 mM
–	–	CC(C)(O)CSc1ncc(Cl)cc1-c1ccc(S(C)(=O)=O)cc1 [Example 44, 5-Chloro-2-(2-Hydroxy-2-methyl-1-thiopropyloxy)-3-(4-methylsulfonyl)phenylpyridine]	0.0015 mM	0.04 µM	> 0.01 mM
–	–	CS(=O)(=O)c1ccc(-c2cc(C(F)(F)F)cnc2SCC2(O)CCCC2)cc1 [Example 49, 2-(1-Hydroxycyclopentyl)thiomethoxy-3-(4-methylsulfonyl)phenyl-5-trifluoromethylpyridine]	0.0012 mM	0.16 µM	0.0003 mM
–	–	C[C@@H](O)CCOc1ncc(C(F)(F)F)cc1-c1ccc(S(C)(=O)=O)cc1 [Example 39, 2-((3R)-3-Hydroxy-1-butyloxy)-3-(4-methylsulfonyl)phenyl-5-trifluoromethylpyridine]	0.0134 mM	0.2 µM	> 0.01 mM
–	–	C[C@]1(O)CCC[C@H]1Oc1ncc(C(F)(F)F)cc1-c1ccc(S(N)(=O)=O)cc1 (relative stereo) [Example 33, 3-(4-aminosulfonyl)phenyl-2-(cis-2-hydroxy-2-methylcyclopentyloxy)-5-trifluoromethylpyridine]	0.0037 mM	0.04 µM	0.01 mM
0.0005 mM	0.05 µM	CC(CO)Sc1ncc(C(F)(F)F)cc1-c1ccc(S(C)(=O)=O)cc1 (centres unmarked) [Example 50, 2-(3-Hydroxy-2-thiopropyloxy)-3-(4-methylsulfonyl)phenyl-5-trifluoromethylpyridine]	–	–	0.001 to 0.003 mM
–	–	C[C@H](Oc1ncc(C(F)(F)F)cc1-c1ccc(S(C)(=O)=O)cc1)C(C)(C)O [Example 16, 2-((2S)-3-Hydroxy-3-methyl-2-butyloxy)-3-(4-methylsulfonyl)phenyl-5-trifluoromethylpyridine]	0.0006 mM	0.43 µM	> 0.01 mM
–	–	C[C@H](O)CCOc1ncc(C(F)(F)F)cc1-c1ccc(S(C)(=O)=O)cc1 [Example 38, 2-((3S)-3-Hydroxy-1-butyloxy)-3-(4-methylsulfonyl)phenyl-5-trifluoromethylpyridine]	0.0059 mM	0.26 µM	0.003 to 0.01 mM
–	–	CCC(C)(O)CSc1ncc(C(F)(F)F)cc1-c1ccc(S(C)(=O)=O)cc1 (single isomer, unassigned; (+)) [Example 45, (+)-2-(2-Hydroxy-2-methyl-1-thiobutyloxy)-3-(4-methylsulfonyl)phenyl-5-trifluoromethylpyridine]	–	–	0.003 to 0.01 mM
–	–	CCC(O)(CC)CSc1ncc(Cl)cc1-c1ccc(S(C)(=O)=O)cc1 [Example 48, 5-Chloro-2-(2-ethyl-2-hydroxy-1-thiobutyloxy)-3-(4-methylsulfonyl)phenylpyridine]	0.0011 mM	0.07 µM	0.001 to 0.003 mM
–	–	C[C@@H](O)[C@@H](C)Oc1ncc(Cl)cc1-c1ccc(S(C)(=O)=O)cc1 [Example 24, 5-Chloro-2-((2R,3R)-3-hydroxy-2-butyloxy)-3-(4-methylsulfonyl)phenylpyridine]	0.0015 mM	0.07 µM	> 0.01 mM
–	–	CCC(C)(O)CSc1ncc(C(F)(F)F)cc1-c1ccc(S(C)(=O)=O)cc1 (single isomer, unassigned; (-)) [Example 46, (-)-2-(2-Hydroxy-2-methyl-1-thiobutyloxy)-3-(4-methylsulfonyl)phenyl-5-trifluoromethylpyridine]	–	–	0.001 to 0.003 mM
–	–	CCC(O)(CC)COc1ncc(C(F)(F)F)cc1-c1ccc(S(C)(=O)=O)cc1 [Example 8, 2-(2-Hydroxy-2-ethyl-1-butyloxy)-3-(4-methylsulfonyl)phenyl-5-trifluoromethylpyridine]	0.0011 mM	0.19 µM	> 0.01 mM
–	–	CC(C)(O)COc1ncc(C(F)(F)F)cc1-c1ccc(S(C)(=O)=O)cc1 [Example 4, 2-(2-Hydroxy-2-methyl-1-propyloxy)-3-(4-methylsulfonyl)phenyl-5-trifluoromethylpyridine]	0.0008 mM	0.15 µM	> 0.1 mM
–	–	CC(C)(O)CCOc1ncc(C(F)(F)F)cc1-c1ccc(S(C)(=O)=O)cc1 [Example 40, 2-(3-Hydroxy-3-methyl-1-butyloxy)-3-(4-methylsulfonyl)phenyl-5-trifluoromethylpyridine]	0.0039 mM	0.2 µM	0.01 mM
–	–	CS(=O)(=O)c1ccc(-c2cc(C(F)(F)F)cnc2O[C@H]2CCC[C@@H]2O)cc1 (relative stereo) [Example 30, 2-(trans-2-Hydroxycyclopentyloxy)-3-(4-methylsulfonyl)phenyl-5-trifluoromethylpyridine]	–	–	0.003 to 0.01 mM
–	–	C[C@@]1(O)CCC[C@H]1Oc1ncc(C(F)(F)F)cc1-c1ccc(S(C)(=O)=O)cc1 (relative stereo) [Example 35, 2-(trans-2-Hydroxy-2-methylcyclopentyloxy)-3-(4-methylsulfonyl)phenyl-5-trifluoromethylpyridine]	–	–	0.001 to 0.003 mM
–	–	CS(=O)(=O)c1ccc(-c2cc(C(F)(F)F)cnc2O[C@@H]2CCC[C@@H]2O)cc1 (relative stereo) [Example 29, 2-(cis-2-Hydroxycyclopentyloxy)-3-(4-methylsulfonyl)phenyl-5-trifluoromethylpyridine]	–	–	> 0.01 mM
